13 molecules from patent publication US9453000B2, “Polycyclic compound” (EISAI R&D MANAGEMENT CO., LTD., priority 2007, dated 2016) can be followed below.

For this assay, the system named is Aβ42 production in rat primary neuronal culture. Description: Quantification of Aβ peptide in culture of neurons from rat fetus brain (Aβ ELISA). It counts as cell-based. To be noted: Primary cortical neuron, 72 h, rat primary cortical neurons (embryonic day 18 Wistar), three days after addition of the compound, Aβx-42 ELISA of medium, read-out: Aβ42 production reducing effect IC50. The method, then:
Quantification of Aβ Peptide in Culture of Neurons from Rat Fetus Brain
(1) Rat Primary Neuronal Culture
Primary neuronal cultures were prepared from the cerebral cortex of embryonic day 18 Wistar rats (Charles River Japan, Yokohama, Japan). Specifically, the embryos were aseptically removed from pregnant rats under ether anesthesia. The brain was isolated from the embryo and immersed in an ice-cold L-15 medium (Invitrogen Corp. Cat #11415-064, Carlsbad, Calif., USA, or SIGMA L1518, for example). The cerebral cortex was collected from the isolated brain under a stereoscopic microscope. The cerebral cortex fragments collected were enzymatically treated in an enzyme solution containing 0.25% trypsin (Invitrogen Corp. Cat #15050-065, Carlsbad, Calif., USA) and 0.01% DNase (Sigma D5025, St. Louis, Mo., USA) at 37° C. for 30 minutes to disperse the cells. Here, the enzymatic reaction was stopped by adding inactivated horse serum to the solution. The enzymatically treated solution was centrifuged at 1,500 rpm for five minutes to remove the supernatant. 5 to 10 ml of a medium was added to the resulting cell mass. Neurobasal medium (Invitrogen Corp. Cat #21103-049, Carlsbad, Calif., USA) supplemented with 2% B27 supplement (Invitrogen Corp. Cat #17504-044, Carlsbad, Calif., USA), 25 μM 2-mercaptoethanol (2-ME, WAKO Cat #139-06861, Osaka, Japan), 0.5 mM L-glutamine (Invitrogen Corp. Cat #25030-081, Carlsbad, Calif., USA), and Antibiotics-Antimycotics (Invitrogen Corp. Cat #15240-062, Carlsbad, Calif., USA) was used as the medium (Neurobasal/B27/2-ME). However, the above Neurobasal medium not supplemented with 2-ME (Neurobasal/B27) was used for the assay. The cells were redispersed by mild pipetting of the cell mass to which the medium was added. The cell dispersion was filtered through a 40-μm nylon mesh (Cell Strainer, Cat #35-2340, Becton Dickinson Labware, Franklin Lakes, N.J., USA) to remove the remaining cell mass, and thus a neuronal cell suspension was obtained. The neuronal cell suspension was diluted with the medium and then plated in a volume of 100 μl/well at an initial cell density of 5×10^5 cells/cm^2 in a 96-well polystyrene culture plate pre-coated with poly-L or D-lysine (Falcon Cat #35-3075, Becton Dickinson Labware, Franklin Lakes, N.J., USA coated with poly-L-lysine using the method shown below, or BIOCOAT™ cell environments Poly-D-lysine cell ware 96-well plate, Cat #35-6461, Becton Dickinson Labware, Franklin Lakes, N.J., USA). Poly-L-lysine coating was carried out as follows. 100 μg/ml of a poly-L-lysine (SIGMA P2636, St. Louis, Mo., USA) solution was aseptically prepared with a 0.15 M borate buffer (pH 8.5). 100 μl/well of the solution was added to the 96-well polystyrene culture plate and incubated at room temperature for one or more hours or at 4° C. overnight or longer. The coated 96-well polystyrene culture plate was washed with sterile water four or more times, and then dried or rinsed with, for example, sterile PBS or medium, and used for cell plating. The plated cells were cultured in the culture plate at 37° C. in 5% CO2-95% air for one day. Then, the total amount of the medium was replaced with a fresh Neurobasal™/B27/2-ME medium, and then the cells were cultured for further three days.
The drug was added to the culture plate on Day 4 of culture as follows. The total amount of the medium was removed from the wells, and 180 μl/well of Neurobasal medium not containing 2-ME and containing 2% B-27 (Neurobasal/B27) was added thereto. A solution of the test compound in dimethyl sulfoxide (hereinafter abbreviated as DMSO) was diluted with Neurobasal/B27 at 10-fold of the final concentration. 20 μl/well of the dilution was added to and sufficiently mixed with the medium. The final DMSO concentration was 1% or less. Only DMSO was added to the control group.
The cells were cultured for three days after addition of the compound, and the total amount of the medium was collected. […]
(ELISA stands for enzyme-linked immunosorbent assay.)
For `COc1nc(/C=C/c2nc3n(n2)CCCC3c2c(F)cccc2C(F)(F)F)ccc1-n1cnc(C)c1` (single isomer, unassigned) [Example 331, (−)-8-(6-fluoro-2-trifluoromethylphenyl)-2-{(E)-2-[6-methoxy-5-(4-methyl-1H-imidazol-1-yl)pyridin-2-yl]vinyl}-5,6,7,8-tetrahydro-[1,2,4]triazolo[1,5-a]pyridine], the IC50 came out at 0.022 µM.

With `COc1nc(/C=C/c2nc3n(n2)CCCC3c2cc(F)ccc2C(F)(F)F)ccc1-n1cnc(C)c1` (single isomer, unassigned) [Example 329, (−)-8-(5-fluoro-2-trifluoromethylphenyl)-2-{(E)-2-[6-methoxy-5-(4-methyl-1H-imidazol-1-yl)pyridin-2-yl]vinyl}-5,6,7,8-tetrahydro-[1,2,4]triazolo[1,5-a]pyridine], the concentration for half-maximal inhibition (IC50) came to 0.017 µM.

For `COc1nc(/C=C/c2nc3n(n2)CCC[C@@H]3c2cccc(C(F)(F)F)c2)ccc1-n1cnc(C)c1` (single isomer, unassigned) [Example 321, (−)-2-{(E)-2-[6-methoxy-5-(4-methyl-1H-imidazol-1-yl)pyridin-2-yl]vinyl}-8-(3-trifluoromethylphenyl)-5,6,7,8-tetrahydro[1,2,4]triazolo[1,5-a]pyridine], the IC50 stood at 0.023 µM.

With `COc1cc(/C=C/c2nc3n(n2)CC[C@H]3c2ccccc2C(F)(F)F)ccc1-n1cnc(C)c1` (single isomer, unassigned) [Example 317, (−)-2-{(E)-2-[3-methoxy-4-(4-methyl-1H-imidazol-1-yl)phenyl]vinyl}-7-(2-trifluoromethylphenyl)-6,7-dihydro-5H-pyrrolo[1,2-b][1,2,4]triazole], the IC50 was found to be 0.025 µM.

`COc1nc(/C=C/c2nc3n(n2)CC[C@H]3c2ccccc2C(F)(F)F)ccc1-n1cnc(C)c1` [Example 390, (S)-2-{(E)-2-[6-methoxy-5-(4-methyl-1H-imidazol-1-yl)pyridin-2-yl]vinyl}-7-(2-trifluoromethylphenyl)-6,7-dihydro-5H-pyrrolo[1,2-b][1,2,4]triazole]: the IC50 was determined as 0.026 µM.

For the molecule `COc1nc(/C=C/c2nc3n(n2)CCCC3c2cccc3ccccc23)ccc1-n1cnc(C)c1` (single isomer, unassigned) [Example 199, (+)-2-{(E)-2-[6-methoxy-5-(4-methyl-1H-imidazol-1-yl)pyridin-2-yl]vinyl}-8-(naphthalen-1-yl)-5,6,7,8-tetrahydro-[1,2,4]triazolo[1,5-a]pyridine], the IC50 worked out at 0.023 µM.

Turning to `COc1nc(/C=C/c2nc3n(n2)CC[C@H]3c2ccc(F)c(F)c2)ccc1-n1cnc(C)c1` [Example 380, (S)-7-(3,4-difluorophenyl)-2-{(E)-2-[6-methoxy-5-(4-methyl-1H-imidazol-1-yl)pyridin-2-yl]vinyl}-6,7-dihydro-5H-pyrrolo[1,2-b][1,2,4]triazole], the IC50 came to 0.029 µM.

On to `COc1nc(/C=C/c2nc3n(n2)CCC[C@@H]3c2ccccc2C)ccc1-n1cnc(C)c1` (single isomer, unassigned) [Example 319, (−)-2-{(E)-2-[6-methoxy-5-(4-methyl-1H-imidazol-1-yl)pyridin-2-yl]vinyl}-8-(o-tolyl)-5,6,7,8-tetrahydro[1,2,4]triazolo[1,5-a]pyridine], for which the IC50 was 0.015 µM.

Turning to `COc1cc(/C=C/c2nc3n(n2)CCC[C@H]3c2ccc(F)cc2)cnc1-n1cnc(C)c1` (single isomer, unassigned) [Example 212, (−)-8-(4-fluorophenyl)-2-{(E)-2-[5-methoxy-6-(4-methyl-1H-imidazol-1-yl)pyridin-3-yl]vinyl}-5,6,7,8-tetrahydro-[1,2,4]triazolo[1,5-a]pyridine], the IC50 was 0.1 µM.

As for `CCCCC(O)c1ccc(C2CCCn3nc(/C=C/c4ccc(-n5cnc(C)c5)c(OC)c4)nc32)cc1` (stereo not shown) [Example 19, 1-{4-{2-{(E)-2-[3-methoxy-4-(4-methyl-1H-imidazol-1-yl)phenyl]vinyl}-5,6,7,8-tetrahydro[1,2,4]triazolo[1,5-a]pyridin-8-yl}phenyl}pentan-1-ol], the IC50 worked out at 0.043 µM.

On to `COc1cc(/C=C/c2nc3n(n2)CCCC3C2CCCN2Cc2ccccc2)ccc1-n1cnc(C)c1` (single isomer, unassigned) [Example 133, 8-(1-benzylpyrrolidin-2-yl)-2-{(E)-2-[3-methoxy-4-(4-methyl-1H-imidazol-1-yl)phenyl]vinyl}-5,6,7,8-tetrahydro[1,2,4]triazolo[1,5-a]pyridine], for which the IC50 came to 0.065 µM.

Regarding `COc1cc(/C=C/c2nc3n(n2)CCCC3c2ccccc2C(F)(F)F)ccc1-n1cnc(C)c1` (single isomer, unassigned) [Example 311, (−)-2-{(E)-2-[3-methoxy-4-(4-methyl-1H-imidazol-1-yl)phenyl]vinyl}-8-(2-trifluoromethylphenyl)-5,6,7,8-tetrahydro-[1,2,4]triazolo[1,5-a]pyridine], the IC50 turned out to be 0.011 µM.

For `COc1nc(/C=C/c2nc3n(n2)CC[C@H]3c2cc(F)ccc2C(F)(F)F)ccc1-n1cnc(C)c1` [Example 392, (S)-7-(5-fluoro-2-trifluoromethylphenyl)-2-{(E)-2-[6-methoxy-5-(4-methyl-1H-imidazol-1-yl)pyridin-2-yl]vinyl}-6,7-dihydro-5H-pyrrolo[1,2-b][1,2,4]triazole], the IC50 came to 0.022 µM.

The IC50 is the concentration that gives 50% inhibition.
